Assay results taken from patent publication US8097637B2, “Benzoyl-piperidine derivatives as dual modulators of the 5-HT2A and D3 receptors” (Hoffmann-La Roche Inc., priority 2007, dated 2012).

Tests used:
[1] = biological target: T1, human D3 dopamine receptor (Homo sapiens, UniProt P35462); test: Radioligand binding ([3H]-spiperone) to cloned human D3 receptor, HEK-293 EBNA cell membranes; conditions: 0.5 nM [3H]-spiperone, 1 h at RT, Cheng-Prusoff
T1 construct: expressed in transfected cells; host or cells: HEK-293 EBNA cells, transient transfection; membrane preparation
T1 sequence (P35462 whole entry): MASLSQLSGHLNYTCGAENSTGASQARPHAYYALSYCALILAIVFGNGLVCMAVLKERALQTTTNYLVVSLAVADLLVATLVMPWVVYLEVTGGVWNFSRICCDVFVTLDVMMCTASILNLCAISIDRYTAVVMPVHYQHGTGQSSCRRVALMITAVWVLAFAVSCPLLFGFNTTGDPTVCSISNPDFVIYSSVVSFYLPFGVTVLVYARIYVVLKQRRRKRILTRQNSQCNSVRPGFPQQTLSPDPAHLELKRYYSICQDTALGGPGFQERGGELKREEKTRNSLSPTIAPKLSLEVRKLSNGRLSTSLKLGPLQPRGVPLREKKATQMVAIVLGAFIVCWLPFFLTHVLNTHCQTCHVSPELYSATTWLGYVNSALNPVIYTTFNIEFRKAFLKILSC
Method: The ability of the compounds to bind to the 5-HT2A, D3 and D2 receptors was determined using radioligand binding to cloned receptors selectively expressed in HEK-293 EBNA cells.
(§1) Membrane Preparation for Human D2, Human D3 and Human 5-HT2A Receptors
(§2) HEK-293 EBNA cells were transiently transfected with expression plasmids encoding for the human D2 or D3 dopamine- or for the human 5-HT2A serotonin receptor, respectively. The cells were harvested 48 h post-transfection, washed three times with cold PBS and stored at −80° C. prior to use. The pellet was suspended in cold 50 mM Tris-HCl buffer containing 10 mM EDTA (pH 7.4) and homogenized with a Polytron (Kinematica AG, Basel, Switzerland) for 20-30 sec at 12.000 rpm. After centrifugation at 48.000×g for 30 min at 4° C., the pellet was resuspended in cold 10 mM Tris-HCl buffer containing 0.1 mM EDTA (pH 7.4), homogenized, and centrifuged as above. This pellet was further resuspended in a smaller volume of ice cold 10 mM Tris-HCl buffer containing 0.1 mM EDTA (pH 7.4) and homogenized with a Polytron for 20-30 sec at 12.000 rpm. The protein content of this homogenate was determined with the Bio-Rad (Bradford) Protein Assay (Biorad Laboratories GmbH, München, Germany) according to the instructions of the manufacturer using gamma globulin as the standard. This homogenate was stored at −80° C. in aliquots and thawed immediately prior to use.
(§3) Radioligand Binding Assay Conditions
(§4) Aliquots of membrane preparations were thawed at RT, resuspended in assay buffer (D2, D3: 50 mM Tris-HCl, 120 mM NaCl, 5 mM MgCl2, 1 mM EDTA, 5 mM KCl, 1.5 mM CaCl2, pH=7.4; 5-HT2A: 50 mM Tris-HCl, 10 mM MgCl2, 1 mM EGTA, pH=7.4), homogenized with a Polytron for 20-30 sec at 12.000 rpm and adjusted to a final concentration of approximately 7.5 μg protein/well (D2, D3) and 15 μg protein/well (5-HT2A), respectively.
(§5) The binding affinity (Ki) of the compounds was determined using radioligand binding. Membranes were incubated in a total volume of 200 μl with a fixed concentration of radioligand (final concentration approximately 0.7 nM [^3H]-spiperone for D2, 0.5 nM [^3H]-spiperone for D3, and 1.1 nM [^3H]-ketanserin for 5-HT2A) and ten concentrations of test compound in ranging between 10 μM-0.1 nM for 1 h at RT. At the end of the incubation, the reaction mixtures were filtered on to unifilter 96-well white microplates with bonded GF/C filters (Packard BioScience, Zürich, Switzerland; preincubated for 1 h in 0.1% polyethylenimine (PEI) in assay buffer) with a Filtermate 196 harvester (Packard BioScience) and washed 3 times with cold assay buffer. The nonspecific binding was determined with equally composed reaction mixtures in the presence of 10 μM unlabeled spiperone. Per well 45 μl of Microscint 40 (Perkin Elmer, Schwerzenbach, Switzerland) was added, plates for sealed, shaken for 20 min and counted for 3 min on a Topcount Microplate Scintillation Counter (Canberra Packard SA, Zürich, Switzerland) with quenching correction.
(§6) The CPM value for each duplicate of a concentration of competing compound was averaged (yl), then the % specific binding was calculated according to the equation (((yl-non-specific)/(total binding-non-specific))×100). Graphs were plotted with the % specific binding using XLfit, a curve fitting program that iteratively plots the data using Levenburg Marquardt algorithm. The single site competition analysis equation used was y=A+((B−A)/(1+((x/C)^D))), where y is the % specific binding, A is the minimum y, B is the maximum y, C is the IC50, x is the log10 of the concentration of the competing compound and D is the slope of the curve (the Hill Coefficient). […] The affinity constant (Ki) was calculated using the Cheng-Prusoff equation Ki=(IC50/1+([L]/Kd), where [L] is the concentration of radioligand and Kd is the dissociation constant of the radioligand at the receptor as determined by the saturation isotherm.

[2] = biological target: T2, human 5-HT2A serotonin receptor (Homo sapiens, UniProt P28223); test: Radioligand binding ([3H]-ketanserin) to cloned human 5-HT2A receptor, HEK-293 EBNA cell membranes; conditions: 1.1 nM [3H]-ketanserin, 1 h at RT, Cheng-Prusoff
T2 construct: expressed in transfected cells; host or cells: HEK-293 EBNA cells, transient transfection; membrane preparation
T2 sequence (P28223 whole entry): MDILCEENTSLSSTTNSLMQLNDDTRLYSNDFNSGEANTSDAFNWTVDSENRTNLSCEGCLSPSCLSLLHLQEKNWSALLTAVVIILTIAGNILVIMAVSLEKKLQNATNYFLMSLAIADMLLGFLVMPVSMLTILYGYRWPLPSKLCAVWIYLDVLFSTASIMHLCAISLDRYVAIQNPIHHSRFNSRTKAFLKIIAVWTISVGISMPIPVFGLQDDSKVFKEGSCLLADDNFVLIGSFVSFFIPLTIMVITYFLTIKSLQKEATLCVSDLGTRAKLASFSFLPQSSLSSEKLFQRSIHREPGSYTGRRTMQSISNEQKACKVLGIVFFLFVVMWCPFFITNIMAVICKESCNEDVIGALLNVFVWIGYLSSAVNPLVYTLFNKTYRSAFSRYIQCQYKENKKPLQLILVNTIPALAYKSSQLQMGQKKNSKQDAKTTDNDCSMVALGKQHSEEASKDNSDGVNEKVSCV
Method: as §1
as §2, with “The” for “HEK-293 EBNA cells were transiently transfected with expression plasmids encoding for the human D2 or D3 dopamine- or for the human 5-HT2A serotonin receptor, respectively. The”
as §3, §4
The binding affinity (Ki) of the compounds was determined using radioligand binding. […] The nonspecific binding was determined with equally composed reaction mixtures in the presence of 10 μM unlabeled spiperone. Per well 45 μl of Microscint 40 (Perkin Elmer, Schwerzenbach, Switzerland) was added, plates for sealed, shaken for 20 min and counted for 3 min on a Topcount Microplate Scintillation Counter (Canberra Packard SA, Zürich, Switzerland) with quenching correction.
as §6

[3] = biological target: T3, human D2 dopamine receptor (Homo sapiens, UniProt P14416); test: Radioligand binding ([3H]-spiperone) to cloned human D2 receptor, HEK-293 EBNA cell membranes; conditions: 0.7 nM [3H]-spiperone, 1 h at RT, Cheng-Prusoff
T3 construct: expressed in transfected cells; host or cells: HEK-293 EBNA cells, transient transfection; membrane preparation
T3 sequence (P14416 whole entry): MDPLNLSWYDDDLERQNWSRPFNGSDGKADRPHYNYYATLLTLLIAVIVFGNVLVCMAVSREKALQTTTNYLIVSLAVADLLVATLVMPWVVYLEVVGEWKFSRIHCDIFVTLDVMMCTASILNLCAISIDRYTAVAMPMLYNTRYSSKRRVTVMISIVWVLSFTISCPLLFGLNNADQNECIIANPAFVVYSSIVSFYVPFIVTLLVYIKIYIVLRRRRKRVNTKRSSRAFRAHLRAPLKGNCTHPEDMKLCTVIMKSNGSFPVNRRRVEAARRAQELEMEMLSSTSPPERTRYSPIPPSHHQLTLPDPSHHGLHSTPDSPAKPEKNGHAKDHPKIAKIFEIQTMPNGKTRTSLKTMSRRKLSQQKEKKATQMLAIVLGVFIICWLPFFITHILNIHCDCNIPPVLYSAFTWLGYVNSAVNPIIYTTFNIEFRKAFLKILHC
Method: as §1, §2, §3, §4, §5, §6

| Structure (SMILES) | Ki [1] [nM] | Ki [2] [nM] | Ki [3] [nM] |
| --- | --- | --- | --- |
| CC1(O)CCC(CC(=O)N[C@H]2CC[C@H](CCN3CCC(C(=O)c4ccc(F)cc4)CC3)CC2)CC1 (mixture of isomers) [Example 22, N-trans (4-{2-[4-(4-Fluoro-benzoyl)-piperidin-1-yl]-ethyl}-cyclohexyl)-2-(4-cis/trans-hydroxy-4-methyl-cyclohexyl)-acetamide] | 56 | 12 | 1360 |
| O=C(CC1CCC(O)CC1)N[C@H]1CC[C@H](CCN2CCC(C(=O)c3ccc(F)cc3)CC2)CC1 (mixture of isomers) [Example 1, N-trans (4-{2-[4-(4-Fluoro-benzoyl)-piperidin-1-yl]-ethyl}-cyclohexyl)-2-cis/trans (4-hydroxy-cyclohexyl)-acetamide] | 43 | 13 | 1490 |
| O=C(C[C@H]1CCC[C@@H](O)C1)N[C@H]1CC[C@H](CCN2CCC(C(=O)c3ccc(F)cc3)CC2)CC1 (racemic) [Example 4, rac-N-trans (4-{2-[4-(4-Fluoro-benzoyl)-piperidin-1-yl]-ethyl}-cyclohexyl)-2-cis (3-hydroxy-cyclohexyl)-acetamide] | 43 | 14 | 1010 |
| COC[C@H]1C[C@@H](CC(=O)N[C@H]2CC[C@H](CCN3CCC(C(=O)c4ccc(F)cc4)CC3)CC2)C1 [Example 26, N-trans (4-{2-[4-(4-Fluoro-benzoyl)-piperidin-1-yl]-ethyl}-cyclohexyl)-2-cis (3-methoxymethyl-cyclobutyl)-acetamide] | 26 | 6 | 2030 |
| CO[C@H]1CC[C@@H](CC(=O)N[C@H]2CC[C@H](CCN3CCC(C(=O)c4ccc(F)cc4)CC3)CC2)CC1 [Example 2, N-trans (4-{2-[4-(4-Fluoro-benzoyl)-piperidin-1-yl]-ethyl}-cyclohexyl)-2-cis (4-methoxy-cyclohexyl)-acetamide] | 28 | 6 | 1510 |
| COCC1CC(CC(=O)N[C@H]2CC[C@H](CCN3CCC(C(=O)c4ccc(F)cc4)CC3)CC2)C1 (mixture of isomers) [Example 20, N-trans(4-{2-[4-(4-Fluoro-benzoyl)-piperidin-1-yl]-ethyl}-cyclohexyl)-2-cis/trans (3-methoxymethyl-cyclobutyl)-acetamide] | 27 | 12 | 1360 |
| COCC1CCC(CC(=O)N[C@H]2CC[C@H](CCN3CCC(C(=O)c4ccc(F)cc4)CC3)CC2)C1 (mixture of isomers) [Example 28, rac-N-trans (4-{2-[4-(4-Fluoro-benzoyl)-piperidin-1-yl]-ethyl}-cyclohexyl)-2-(3-methoxymethyl-cyclopentyl)-acetamide] | 33 | 7 | 1300 |
| C[C@]1(O)CC[C@H](CC(=O)N[C@H]2CC[C@H](CCN3CCC(C(=O)c4ccc(F)cc4)CC3)CC2)CC1 (single isomer, unassigned) [Example 23, N-trans (4-{2-[4-(4-Fluoro-benzoyl)-piperidin-1-yl]-ethyl}-cyclohexyl)-2-(4-trans-hydroxy-4-methyl-cyclohexyl)-acetamide or N-trans (4-{2-[4-(4-fluoro-benzoyl)-piperidin-1-yl]-ethyl}-cyclohexyl)-2-(4-cis-hydroxy-4-methyl-cyclohexyl)-acetamide] | 49 | 7 | 1300 |
| CCO[C@H]1CC[C@H](CC(=O)N[C@H]2CC[C@H](CCN3CCC(C(=O)c4ccc(F)cc4)CC3)CC2)CC1 [Example 13, Trans-2-(4-Ethoxy-cyclohexyl)-N-trans (4-{2-[4-(4-fluoro-benzoyl)-piperidin-1-yl]-ethyl}-cyclohexyl)-acetamide] | 33 | 13 | 1400 |
| C[C@]1(O)CC[C@@H](CC(=O)N[C@H]2CC[C@H](CCN3CCC(C(=O)c4ccc(F)cc4)CC3)CC2)CC1 (single isomer, unassigned) [Example 24, N-trans (4-{2-[4-(4-Fluoro-benzoyl)-piperidin-1-yl]-ethyl}-cyclohexyl)-2-(4-cis-hydroxy-4-methyl-cyclohexyl)-acetamide or N-trans (4-{2-[4-(4-fluoro-benzoyl)-piperidin-1-yl]-ethyl}-cyclohexyl)-2-(4-trans-hydroxy-4-methyl-cyclohexyl)-acetamide] | 43 | 9 | 1200 |
| CC(=O)N[C@H]1CC[C@H](CC(=O)N[C@H]2CC[C@H](CCN3CCC(C(=O)c4ccc(F)cc4)CC3)CC2)CC1 [Example 27, 2-trans (4-Acetylamino-cyclohexyl)-N-trans-(4-{2-[4-(4-fluoro-benzoyl)-piperidin-1-yl]-ethyl}-cyclohexyl)-acetamide] | 44 | 34 | 2070 |
| O=C(C[C@H]1CC[C@@H](O)C1)N[C@H]1CC[C@H](CCN2CCC(C(=O)c3ccc(F)cc3)CC2)CC1 (racemic) [Example 6, rac-trans-N (4-{2-[4-(4-Fluoro-benzoyl)-piperidin-1-yl]-ethyl}-cyclohexyl)-2-cis (3-hydroxy-cyclopentyl)-acetamide] | 35 | 11 | 828 |
| COC[C@H]1CC[C@H](CC(=O)N[C@H]2CC[C@H](CCN3CCC(C(=O)c4ccc(F)cc4)CC3)CC2)CC1 [Example 21, N-trans (4-{2-[4-(4-Fluoro-benzoyl)-piperidin-1-yl]-ethyl}-cyclohexyl)-2-trans (4-methoxymethyl-cyclohexyl)-acetamide] | 25 | 5 | 1010 |
| O=C(C[C@H]1CC[C@H](O)C1)N[C@H]1CC[C@H](CCN2CCC(C(=O)c3ccc(F)cc3)CC2)CC1 (racemic) [Example 7, rac-N-trans (4-{2-[4-(4-Fluoro-benzoyl)-piperidin-1-yl]-ethyl}-cyclohexyl)-2-trans (3-hydroxy-cyclopentyl)-acetamide] | 19 | 16 | 807 |
